Converted amounts (≈) assume the structure as drawn.
Key:
[1] = tested on: spleen cells (T cells activated by Concanavalin A); assay: Inhibitory activity against blastogenesis and proliferation of spleen cells caused by mitogen (Con A); type: cell-based, mouse (CDF1); details: for IC50: read-out: IC50 (inhibition of blastogenesis and proliferation of spleen lymphocyte caused by Con A); for activity inhibitory to the reaction of proliferation of mouse spleen cells activated with Concanavalin A: in vitro, result in words
[2] = tested on: nylon wool-passed cells of spleen cells (responder cell; T cells); assay: Inhibitory activity to the mixed lymphocyte culture reaction; type: cell-based, rat (Fischer F344 responder; WKY stimulator); details: for IC50: 120 hours, 3H-thymidine incorporation, read-out: IC50 (inhibition of mixed lymphocyte culture reaction); for activity to inhibit the proliferation of the T cells (responder cell) in mixed lymphocyte culture reaction: in vitro, result in words
Mouse leukemia L-1210 = assay: Inhibitory activity on proliferation of cancer cells; type: cell-based; details: L1210
Mouse leukemia P388D1 = assay: as above; type: cell-based
Mouse leukemia EL-4 = assay: as above; type: cell-based; details: EL4
Mouse melanoma B-16 = assay: as above; type: cell-based; details: B16
Human Lymphoma Jurkat = assay: as above; type: cell-based
Candida tropicalis F-1 = assay: MIC, agar plate dilution method; type: cell-based; details: F1, 27° C., 42 hours, nutrient agar containing glucose
[3] = tested on: Candida pseudotropicalis F-2; assay: MIC, agar plate dilution method; type: cell-based; details: Kluyveromyces marxianus, F2; 27° C., 42 hours, nutrient agar containing glucose
Candida albicans 3147 = assay: MIC, agar plate dilution method; type: cell-based; details: 27° C., 42 hours, nutrient agar containing glucose
Candida Yu-1200 = assay: MIC, agar plate dilution method; type: cell-based; details: YU1200, 27° C., 42 hours, nutrient agar containing glucose
Candida krusei F-5 = assay: MIC, agar plate dilution method; type: cell-based; details: Pichia kudriavzevii, F5; 27° C., 42 hours, nutrient agar containing glucose
[4] = tested on: Saccharomyces cerevisiae F-7; assay: MIC, agar plate dilution method; type: cell-based; details: F7, 27° C., 42 hours, nutrient agar containing glucose
Cochliobolus miyabeanus = assay: MIC, agar plate dilution method; type: cell-based; details: Bipolaris oryzae; 27° C., 42 hours, nutrient agar containing glucose
Description: (§1) Delaminomycins A, B, C, A2, B2 and C2 according to this invention further have an antibacterial activity against a variety of bacteria. The minimum growth inhibitory concentrations (MIC) (μg/ml) of the novel antibiotics of this invention on various bacteria and fungi as measured by the agar plate dilution method are shown in Table 5a, Table 5b, Table 5c and Table 5d below.
(§2) Evaluated after culturing at 27° C. for 42 hours in nutrient agar
(§3) medium containing glucose.

Xanthomonas citri = assay: MIC, agar plate dilution method; type: cell-based; details: 27° C., 42 hours, nutrient agar containing glucose
Description: as §1, §2, §3

Piricularia oryzae = assay: microbe, parasite or virus in culture; type: cell-based; details: 42 h
Pellicularia sasakii = assay: MIC, agar plate dilution method; type: cell-based; details: 27° C., 42 hours, nutrient agar containing glucose
Aspergillus niger F-16 = assay: MIC, agar plate dilution method; type: cell-based; details: F16, 27° C., 42 hours, nutrient agar containing glucose
[5] = tested on: Trichophyton asteroides 429; assay: MIC, agar plate dilution method; type: cell-based; details: 27° C., 42 hours, nutrient agar containing glucose
[6] = tested on: Trichophyton mentagrophytes F-15 (833); assay: MIC, agar plate dilution method; type: cell-based; details: 27° C., 42 hours, nutrient agar containing glucose
Solubility = details: result in words; for Solubility: various solvents
[7] = Absorption into the digestive tracts on oral administration; details: result in words
[8] = tested on: delayed-type hypersensitivity (DTH); assay: Suppressive effect on delayed-type hypersensitivity (DTH) in mouse, intraperitoneal; type: in vivo, mouse (CDF1); details: intraperitoneal once a day, 0-4th day
Text: Suppressive effect of delaminomycins on delayed-type hypersensitivity (DTH) in mouse
CDF1 mice were immunized by intravenously injecting sheep red blood cells (10^5 cells/mouse). On the 4th day after the immunization, sheep red blood cells (10^8 cells/mouse) were subcutaneously injected into the footpad of mice for the elicitation to cause a delayed-type hypersensitivity (DTH). Test compound was intraperitoneally administered to the mice once a day from the 0th day to 4th day after the immunization. On the 5th day after the elicitation the thickness of the mouse footpad was measured to estimate the suppressive effect of the test compound on the DTH response. The suppressive effect of the test compound was evaluated in terms of the inhibition rate (%) as calculated according to the following equation:
(§4) Inhibition rate (%)=100-(T/C×100)
wherein T denotes the thickness of the footpad when administering the test compound, but C denotes the thickness of the footpad when administering no test compound.

[9] = tested on: delayed-type hypersensitivity (DTH); assay: Suppressive effect on delayed-type hypersensitivity (DTH) in mouse, oral; type: in vivo, mouse (CDF1); details: 2.0 mg/mouse, oral once a day, 0~4th day
Description: CDF1 mice were immunized by intravenously injecting sheep red blood cells (10^5 cells/mouse). On the 4th day after the immunization, sheep red blood cells (10^8 cells/mouse) were subcutaneously injected into the footpad of mice for the elicitation to cause a delayed-type hypersensitivity. Test compound was orally administered to the mice once a day from the 0 th day to the 4 th day after the immunization. On the 5th day after the elicitation, the thickness of the mouse footpad was measured to estimate the suppressive effect of the test compound on DTH. The suppressive effect of the test compound was evaluated in terms of the inhibition rate (%) as calculated according to the following equation:
as §4
wherein T denotes the thickness of the footpad when the test compound was administered, but C denotes the thickness of the footpad when no test compounnd was administered.

[10] = tested on: Cryptococcus neoformans F-10; assay: MIC, agar plate dilution method; type: cell-based; details: F10, 27° C., 42 hours, nutrient agar containing glucose
Gram-positive bacteria = assay: Antibacterial activity to Gram-positive bacteria; type: cell-based; details: result in words
Text: as §1

Structure (SMILES): CCC(O)C(C)/C=C/C=C/C(O)CC1C=CC2CC(C)CC(C)C2C1(C)C(=O)C1C(=O)NC(OC)C1=O (stereo not drawn) [Delaminomycin B]
- IC50 ([1]; Mus musculus, T-cell): 4 µg/mL (≈ 7.76 µM)
- inhibition at 0.39 µg/mL ([1]; Mus musculus, T-cell, 0.39 μg/ml test compound, read-out: Inhibition rate): 0%
- inhibition at 6.25 µg/mL ([1]; Mus musculus, T-cell, 6.25 μg/ml test compound, read-out: Inhibition rate): 77%
- inhibition at 25 µg/mL ([1]; Mus musculus, T-cell, 25 μg/ml test compound, read-out: Inhibition rate): 69%
- inhibition at 100 µg/mL ([1]; Mus musculus, T-cell, 100 μg/ml test compound, read-out: Inhibition rate): 70%
- activity inhibitory to the reaction of proliferation of mouse spleen cells activated with Concanavalin A [1]: exhibit an activity inhibitory to the reaction of proliferation of mouse spleen cells
- inhibition at 1.56 µg/mL ([2]; Rattus norvegicus, T-cell, read-out: Inhibition rate): 58.4%
- inhibition at 0.1 µg/mL ([2]; Rattus norvegicus, T-cell, 0.10 μg/ml test compound, read-out: Inhibition rate): 12.1%
- inhibition at 0.39 µg/mL ([2]; Rattus norvegicus, T-cell, 0.39 μg/ml test compound, read-out: Inhibition rate): 27.9%
- inhibition at 6.25 µg/mL ([2]; Rattus norvegicus, T-cell, 6.25 μg/ml test compound, read-out: Inhibition rate): 95.1%
- inhibition at 25 µg/mL ([2]; Rattus norvegicus, T-cell, 25 μg/ml test compound, read-out: Inhibition rate): 95%
- inhibition at 100 µg/mL ([2]; Rattus norvegicus, T-cell, 100 μg/ml test compound, read-out: Inhibition rate): 93.2%
- IC50 ([2]; Rattus norvegicus, T-cell): 1.1 µg/mL (≈ 2.13 µM)
- activity to inhibit the proliferation of the T cells (responder cell) in mixed lymphocyte culture reaction [2]: have an activity to inhibit the reaction of proliferation of the T cells
- IC50 (Mouse leukemia L-1210): 30 µg/mL (≈ 58.2 µM)
- IC50 (Mouse leukemia P388D1): 13.3 µg/mL (≈ 25.8 µM)
- IC50 (Mouse leukemia EL-4): 11.1 µg/mL (≈ 21.5 µM)
- IC50 (Mouse melanoma B-16): > 100 µg/mL
- IC50 (Human Lymphoma Jurkat): 8.2 µg/mL (≈ 15.9 µM)
- MIC (Candida tropicalis F-1): > 100 µg/mL
- MIC [3]: > 100 µg/mL
- MIC (Candida albicans 3147): > 100 µg/mL
- MIC (Candida Yu-1200): > 100 µg/mL
- MIC (Candida krusei F-5): > 100 µg/mL
- MIC [4]: > 100 µg/mL
- MIC (Cochliobolus miyabeanus): > 100 µg/mL
- MIC (Xanthomonas citri): > 100 µg/mL
- MIC (Piricularia oryzae): > 100 µg/mL
- MIC (Pellicularia sasakii): > 50 µg/mL
- MIC (Aspergillus niger F-16): > 100 µg/mL
- MIC [5]: > 100 µg/mL
- MIC [6]: > 100 µg/mL
- Solubility (Solubility): soluble in methanol but slightly soluble or insoluble in water, acetone, ethyl ether and n-hexane
- Solubility in water (Solubility): barely soluble in water
- absorption into the digestive tracts / oral absorption [7]: hardly absorbed into the digestive tracts

Structure (SMILES): CCC(O)C(C)/C=C/C=C/C1CC2C=CC3CC(C)CC(C)C3C2(C)C(=O)C12C(=O)NC(OC)C2=O (stereo not drawn) [Delaminomycin B2]
- IC50 ([1]; Mus musculus, T-cell): 0.85 µg/mL (≈ 1.71 µM)
- inhibition at 0.2 µg/mL ([1]; Mus musculus, T-cell, 0.20 μg/ml test compound, read-out: Inhibition rate): 12.3%
- inhibition at 0.78 µg/mL ([1]; Mus musculus, T-cell, 0.78 μg/ml test compound, read-out: Inhibition rate): 47.6%
- inhibition at 3.1 µg/mL ([1]; Mus musculus, T-cell, 3.1 μg/ml test compound, read-out: Inhibition rate): 92.7%
- inhibition at 12.5 µg/mL ([1]; Mus musculus, T-cell, 12.5 μg/ml test compound, read-out: Inhibition rate): 94.1%
- inhibition at 50 µg/mL ([1]; Mus musculus, T-cell, 50 μg/ml test compound, read-out: Inhibition rate): 96.7%
- activity inhibitory to the reaction of proliferation of mouse spleen cells activated with Concanavalin A [1]: exhibit an activity inhibitory to the reaction of proliferation of mouse spleen cells
- inhibition at 0.05 µg/mL ([2]; Rattus norvegicus, T-cell, 0.05 μg/ml test compound, read-out: Inhibition rate): 0%
- inhibition at 0.2 µg/mL ([2]; Rattus norvegicus, T-cell, 0.20 μg/ml test compound, read-out: Inhibition rate): 12.3%
- inhibition at 0.78 µg/mL ([2]; Rattus norvegicus, T-cell, 0.78 μg/ml test compound, read-out: Inhibition rate): 47.6%
- inhibition at 3.1 µg/mL ([2]; Rattus norvegicus, T-cell, 3.1 μg/ml test compound, read-out: Inhibition rate): 92.7%
- inhibition at 12.5 µg/mL ([2]; Rattus norvegicus, T-cell, 12.5 μg/ml test compound, read-out: Inhibition rate): 94.1%
- inhibition at 50 µg/mL ([2]; Rattus norvegicus, T-cell, 50 μg/ml test compound, read-out: Inhibition rate): 96.7%
- IC50 ([2]; Rattus norvegicus, T-cell): 8.6 µg/mL (≈ 17.3 µM)
- activity to inhibit the proliferation of the T cells (responder cell) in mixed lymphocyte culture reaction [2]: have an activity to inhibit the reaction of proliferation of the T cells
- Inhibition rate (DTH footpad thickness) ([8]; 15.6 μg/mouse): -3.3%
- Inhibition rate (DTH footpad thickness) ([8]; 62.5 μg/mouse): 35.4%
- Inhibition rate (DTH footpad thickness) ([8]; 250 μg/mouse): 36.2%
- Inhibition rate (DTH footpad thickness) ([8]; 1000 μg/mouse): 51.3%
- Inhibition rate (DTH footpad thickness) [9]: 18.4%
- IC50 (Mouse leukemia L-1210): 8 µg/mL (≈ 16.1 µM)
- IC50 (Mouse leukemia P388D1): 12.1 µg/mL (≈ 24.3 µM)
- IC50 (Mouse leukemia EL-4): 6.8 µg/mL (≈ 13.7 µM)
- IC50 (Mouse melanoma B-16): 17.9 µg/mL (≈ 36 µM)
- IC50 (Human Lymphoma Jurkat): 11.4 µg/mL (≈ 22.9 µM)
- MIC (Candida tropicalis F-1): > 100 µg/mL
- MIC [3]: > 100 µg/mL
- MIC (Candida albicans 3147): > 100 µg/mL
- MIC (Candida Yu-1200): > 100 µg/mL
- MIC (Candida krusei F-5): > 100 µg/mL
- MIC [4]: > 100 µg/mL
- MIC [10]: > 100 µg/mL
- MIC (Cochliobolus miyabeanus): > 100 µg/mL
- MIC (Xanthomonas citri): > 100 µg/mL
- MIC (Piricularia oryzae): > 100 µg/mL
- MIC (Pellicularia sasakii): > 50 µg/mL
- MIC (Aspergillus niger F-16): > 100 µg/mL
- MIC [5]: > 100 µg/mL
- MIC [6]: > 100 µg/mL
- antibacterial activity to Gram-positive bacteria (Gram-positive bacteria): antibacterial activity to Gram-positive bacteria
- Solubility (Solubility): soluble in methanol, ethyl acetate, chloroform and ethyl ether but slightly soluble or insoluble in n-hexane and water
- Solubility in water (Solubility): barely soluble in water
- absorption into the digestive tracts / oral absorption [7]: hardly absorbed into the digestive tracts

Reference: patent publication US5527820A, “Antibiotics having immunosuppressive activity, delaminomycins and processes for the production of the same” (priority 1992, dated 1996)
